Measurements from US10111854B2, “Synthesis and use of amine-containing flavonoids as potent anti-leishmanial agents” (The Hong Kong Polytechnic University, priority 2014, dated 2018).

Columns and labels:
[1] = system: L. donovani (LdAG83) promastigotes; test: Anti-promastigote activity, wild type L. donovani LdAG83; format: cell-based; settings: Leishmania donovani; printed in HU3 column; footnote *: wild type LdAG83 used instead of HU3
[2] = system: peritoneal elicited macrophages (PEM); test: Cytotoxicity, peritoneal elicited macrophages (PEM); format: cell-based, mouse; settings: mouse
[3] = system: L. major FV1 promastigotes; test: Anti-promastigote activity (MTS assay), L. major FV1; format: cell-based; settings: Leishmania major, 72 hours
Method in brief: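 Promastigotes (1×10^5 per well) in Schneider's medium pH 6.9 with 10% FBS, exposed to serial compound concentrations for 72 h at 27 °C. Viability by MTS/PMS reduction over 4 h, OD 490 nm; IC50 derived.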

IC50 [1] [nM]	IC50 [3] [nM]	SMILES	IC50 [2] [nM]
200 ± 30	–	O=c1cc(-c2ccc(OCCOCCN(CCOCCOc3ccc(-c4cc(=O)c5ccccc5o4)cc3)Cc3ccncc3)cc2)oc2ccccc12 [compound 39]	> 88000
–	800 ± 100	O=c1cc(-c2ccc(OCCOCCN(Cc3ccccn3)Cc3ccccn3)cc2)oc2ccccc12 [FM09, 2-(4-(2-(2-(bis(pyridin-2-ylmethyl)amino)ethoxy)ethoxy)phenyl)-4H-chromen-4-one]	–
